Experimental data taken from patent US12208071B2, “Glucagon receptor antagonists” (LIGAND PHARMACEUTICALS INCORPORATED, priority 2018, dated 2025).
“Also recorded” adds a separate entry of the source. Read-outs that look alike come from different tables or passages of the source.

What was measured:
Assay type in all cases: physicochemical
[1] = Hygroscopicity (DVS) of Polymorph Form A
Method: Details of DVS method used in the tests are summarized below: • Test the sorption/desorption profile of testing compound at 25° C. under 0-90% relative humidity. 3.3 HPLC Method
About 10 mg Polymorph Form A was weighed and the sorption/desorption profiles were set at 25° C. under 0-90% relative humidity. The compound after testing was also subjected to an XRPD test to determine if any polymorph changes exist after exposure to a cycle of humidity change.

[2] = Aqueous solubility, 24 hours at 25° C., HPLC; details: for solubility at 24 h: 25 °C, thermodynamic from solid; for solubility at 24 h / Solubility: 24 hours at 25° C., n = 2
Method: The testing media: Water, pH 4.0, 6.8, 7.4, 10.0 USP buffers (50 mM), 0.1N HCl, 0.01N HCl, SGF, FaSSIF, FeSSIF.
About 10 mg of Polymorph Form A was weighed and added to a 1.5 mL vial, and then 1.0 mL of aqueous media was added into the vial. The vial was shaken for 24 hours at 25° C. After equilibration for 24 hours, the mixture was centrifuged at 14000 rpm for 10 mins. The concentration of supernatant was checked by HPLC and the residuals were checked by XRPD. The final pH of supernatant was recorded. Experiments were conducted in duplicate.

[3] = Log P/D by shake-flask method (1-octanol/buffer, HPLC); details: for logD: 1-octanol/buffer
Method: First, a sample stock solution of Polymorph Form A (100 mmol/L in DMSO) was prepared. 20 μL each of sample DMSO stock solutions was added into 4 ml-vials, then dispensed into 990 μL of 1-octanol-saturated buffer at varied pH and 990 μL of buffer-saturated 1-octanol, vortexed for 3 min and shaken for 1 hr at […], then centrifuged at 2500 rpm for 2 min to get rid of bubbles in the solutions. Finally, buffer-layer sample and 1-octanol-layer sample were separated, and then buffer-layer sample and 1-octanol-layer sample was injected into HPLC, integrated the chromatography and calculated the sample concentrations ratio in both buffer and 1-octanol phase. The Log P/D result was obtained by following equation: […]
The Log P/D value of Polymorph Form A was acquired by shake-flask method using a HPLC system. Since the concentrations of Polymorph Form A in buffer layer are too low to analyze, based on the comparison of blank and standard solution (S/N=5), 0.05 μmol/L was used in buffer layer to calculate Log D.

[4] = 25° C., Cycle 1, target 0.0 % P/Po
[5] = 25° C., Cycle 1, target 10.0 % P/Po
[6] = 25° C., Cycle 1, target 20.0 % P/Po
[7] = 25° C., Cycle 1, target 30.0 % P/Po
[8] = 25° C., Cycle 1, target 40.0 % P/Po
[9] = 25° C., Cycle 1, target 50.0 % P/Po
[10] = 25° C., Cycle 1, target 60.0 % P/Po
[11] = 25° C., Cycle 1, target 70.0 % P/Po
[12] = 25° C., Cycle 1, target 80.0 % P/Po
[13] = 25° C., Cycle 1, target 90.0 % P/Po

Cc1cc(C)c(-c2ccc(NC(=O)[C@H](Cc3ccc(C(=O)NCCS(=O)(=O)[O-])cc3)c3ccc(-c4ccc(C(C)(C)C)cc4)cc3)cc2)c(C)c1.[Na+] [Polymorph Form A, Sodium (R)-2-(4-(2-(4′-(tert-butyl)-[1,1′-biphenyl]-4-yl)-3-oxo-3-((2′,4′,6′-trimethyl-[1,1′-biphenyl]-4-yl)amino)propyl)benzamido)ethane-1-sulfonate]
Change in Mass (%)-ref, Desorption [1, 4]: 0.20% | Change in Mass (%)-ref, Sorption [1, 4]: 0.00% | Change in Mass (%)-ref, Desorption [1, 5]: 1.64% | Change in Mass (%)-ref, Hysteresis [1, 5]: 0.29% | Change in Mass (%)-ref, Sorption [1, 5]: 1.35% | Change in Mass (%)-ref, Desorption [1, 6]: 2.73% | Change in Mass (%)-ref, Hysteresis [1, 6]: 0.39% | Change in Mass (%)-ref, Sorption [1, 6]: 2.34% | Change in Mass (%)-ref, Desorption [1, 7]: 4.08% | Change in Mass (%)-ref, Hysteresis [1, 7]: 0.50% | Change in Mass (%)-ref, Sorption [1, 7]: 3.58% | Change in Mass (%)-ref, Desorption [1, 8]: 5.48% | Change in Mass (%)-ref, Hysteresis [1, 8]: 0.63% | Change in Mass (%)-ref, Sorption [1, 8]: 4.85% | Change in Mass (%)-ref, Desorption [1, 9]: 6.98% | Change in Mass (%)-ref, Hysteresis [1, 9]: 0.87% | Change in Mass (%)-ref, Sorption [1, 9]: 6.11% | Change in Mass (%)-ref, Desorption [1, 10]: 8.08% | Change in Mass (%)-ref, Hysteresis [1, 10]: 0.39% | Change in Mass (%)-ref, Sorption [1, 10]: 7.69% | Change in Mass (%)-ref, Desorption [1, 11]: 13.12% | Change in Mass (%)-ref, Hysteresis [1, 11]: 3.90% | Change in Mass (%)-ref, Sorption [1, 11]: 9.21% | Change in Mass (%)-ref, Desorption [1, 12]: 16.12% | Change in Mass (%)-ref, Hysteresis [1, 12]: 1.04% | Change in Mass (%)-ref, Sorption [1, 12]: 15.09% | Change in Mass (%)-ref, Desorption [1, 13]: 20.08% | Change in Mass (%)-ref, Sorption [1, 13]: 20.08% | Hygroscopicity classification ([1]; DVS, 0 to 90% RH, 25° C.): very hygroscopic | XRPD after hygroscopicity test ([1]; after a cycle of humidity change): no change | weight gain ([1]; from 0 to 90% RH, 25° C.): 20.08% | Form (XRPD of residual after solubility test) ([2]; 0.01N HCl): Form A | solubility at 24 h ([2]; 0.01N HCl, pH 2.24, simulated gastric fluid, initial pH 1.97, final pH 2.24): < 100 µg/mL | Solubility ([2]; 0.01N HCl, initial pH 1.97, final pH 2.24): 0.07 ± 0.00 mg/mL | Form (XRPD of residual after solubility test) ([2]; 0.1N HCl): Form A | solubility at 24 h ([2]; 0.1N HCl, pH 1.08, simulated gastric fluid, initial pH 1.02, final pH 1.08): < 100 µg/mL | Solubility ([2]; 0.1N HCl, initial pH 1.02, final pH 1.08): 0.06 ± 0.00 mg/mL | Form (XRPD of residual after solubility test) ([2]; FaSSIF): Form A | Form (XRPD of residual after solubility test) ([2]; FeSSIF): Form A | Form (XRPD of residual after solubility test) ([2]; SGF): Form A | XRPD after solubility test (overall) ([2]; all aqueous media): no new forms were found; also recorded: no change | solubility at 24 h ([2]; pH 4.0 USP buffer (50 mM), pH 4, aqueous buffer, pH 4.0 buffer, initial pH 4.05, final pH 4.13): < 100 µg/mL | Form (XRPD of residual after solubility test) ([2]; pH 4.0 buffer): Form A | Solubility ([2]; pH 4.0 buffer, initial pH 4.05, final pH 4.13): 0.05 ± 0.01 mg/mL | solubility at 24 h ([2]; pH 6.8 USP buffer (50 mM), pH 6.8, aqueous buffer, pH 6.8 buffer, initial pH 6.84, final pH 6.87): < 100 µg/mL | Form (XRPD of residual after solubility test) ([2]; pH 6.8 buffer): Form A | Solubility ([2]; pH 6.8 buffer, initial pH 6.84, final pH 6.87): 0.05 ± 0.00 mg/mL | solubility at 24 h ([2]; pH 7.4 USP buffer (50 mM), pH 7.4, aqueous buffer, pH 7.4 buffer, initial pH 7.43, final pH 7.46): < 100 µg/mL | Form (XRPD of residual after solubility test) ([2]; pH 7.4 buffer): Form A | Solubility ([2]; pH 7.4 buffer, initial pH 7.43, final pH 7.46): 0.06 ± 0.01 mg/mL | Form (XRPD of residual after solubility test) ([2]; pH 10.0 buffer): Form A | Form (XRPD of residual after solubility test) ([2]; water): Form A | logD ([3]; pH 1.5, read-out: Log D Rep.1): > 4.32 | logD ([3]; pH 7.4, read-out: Log D Rep.1): > 4.32 | logD ([3]; pH 1.0, read-out: Log D Rep.1): > 4.32 | logD ([3]; pH 2.0, read-out: Log D Rep.1): > 4.32 | logD ([3]; pH 3.0, read-out: Log D Rep.1): > 4.32 | logD ([3]; pH 4.0, read-out: Log D Rep.1): > 4.32 | logD ([3]; pH 11.0, read-out: Log D Rep.1): > 4.32 | logD ([3]; pH range of 1.0 to 11.0, read-out: Log D values): > 4.32 | Log D Average ([3]; pH 1.0): >4.32 | Log D Rep.2 ([3]; pH 1.0): >4.32 | Log D Average ([3]; pH 1.5): >4.32 | Log D Rep.2 ([3]; pH 1.5): >4.32 | Log D Average ([3]; pH 2.0): >4.32 | Log D Rep.2 ([3]; pH 2.0): >4.32 | Log D Average ([3]; pH 3.0): >4.32 | Log D Rep.2 ([3]; pH 3.0): >4.32 | Log D Average ([3]; pH 4.0): >4.32 | Log D Rep.2 ([3]; pH 4.0): >4.32 | Log D Average ([3]; pH 7.4): >4.32 | Log D Rep.2 ([3]; pH 7.4): >4.32 | Log D Average ([3]; pH 11.0): >4.32 | Log D Rep.2 ([3]; pH 11.0): >4.32
